Experimental data taken from patent publication US12612410B2 (CHILDREN'S HOSPITAL MEDICAL CENTER, priority 2020, dated 2026).

These molecules were tested against T1, FLT3 ITD, F691L (Homo sapiens, UniProt P36888, F691L, form not given) (assay: DiscoverX KINOMEscan competition binding, FLT3 ITD, F691L).
T1 construct: fused on or other part: DNA tag for qPCR detection (T7 phage fusion or DNA-tagged protein from HEK-293 cells)
T1 sequence (P36888 1-993 F691L): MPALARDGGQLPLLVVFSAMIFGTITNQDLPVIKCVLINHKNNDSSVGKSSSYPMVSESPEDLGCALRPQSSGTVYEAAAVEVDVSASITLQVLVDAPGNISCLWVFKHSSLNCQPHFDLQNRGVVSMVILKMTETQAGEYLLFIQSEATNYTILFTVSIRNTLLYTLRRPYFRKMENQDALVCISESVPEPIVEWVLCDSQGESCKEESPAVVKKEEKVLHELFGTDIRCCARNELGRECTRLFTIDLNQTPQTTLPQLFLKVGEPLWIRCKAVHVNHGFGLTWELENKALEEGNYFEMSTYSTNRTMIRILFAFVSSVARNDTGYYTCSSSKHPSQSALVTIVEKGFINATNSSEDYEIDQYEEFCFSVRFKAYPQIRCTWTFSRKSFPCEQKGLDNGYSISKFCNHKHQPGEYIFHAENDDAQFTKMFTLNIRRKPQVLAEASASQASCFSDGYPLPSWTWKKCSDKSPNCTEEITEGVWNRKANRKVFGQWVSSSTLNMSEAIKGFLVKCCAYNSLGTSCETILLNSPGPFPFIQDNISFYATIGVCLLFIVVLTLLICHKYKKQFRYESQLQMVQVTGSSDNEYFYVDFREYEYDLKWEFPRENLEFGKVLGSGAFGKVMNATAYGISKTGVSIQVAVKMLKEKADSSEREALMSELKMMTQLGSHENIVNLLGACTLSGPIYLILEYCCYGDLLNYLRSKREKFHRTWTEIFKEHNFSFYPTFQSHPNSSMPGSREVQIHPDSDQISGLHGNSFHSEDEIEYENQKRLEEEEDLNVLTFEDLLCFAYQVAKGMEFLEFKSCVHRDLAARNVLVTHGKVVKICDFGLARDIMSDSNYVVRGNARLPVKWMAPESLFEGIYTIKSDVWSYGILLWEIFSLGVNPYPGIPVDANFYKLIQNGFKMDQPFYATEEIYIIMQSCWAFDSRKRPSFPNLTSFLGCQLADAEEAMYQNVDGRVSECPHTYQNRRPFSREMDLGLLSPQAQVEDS
Text: Kinase binding data were obtained for various exemplary compounds prepared according to Examples 1-24 using the DiscoverX KINOMVIEscan® active site-directed competition binding site-directed assay protocol described below. […] As a result, the data report thermodynamic interaction affinities (Kd values), rather than IC50 values that are dependent on ATP concentrations. The assay uses a DNA-tagged version of the protein kinase, and an immobilized ligand bound to a solid support. Compounds that directly or indirectly prevent kinase binding to the immobilized ligand reduce the amount of kinase captured on the solid support, which is detected using an ultra-sensitive qPCR method. Affinity constants reported from the assay have been reported to be independent of the immobilized ligand used that is coupled to the solid support (See supplemental information in Fabian, M. A. et. al., (2005) Nat. Biotechnol. 23, 329-336; Wodicka, L. M. et. al., (2010) Chem. Biol. 17, 1241-1249.)
Kinase-tagged T7 phage strains were prepared in an E. coli host derived from the BL21 strain. E. coli were grown to log-phase and infected with T7 phage and incubated with shaking at 32° C. until lysis. The lysates were centrifuged and filtered to remove cell debris. The remaining kinases were produced in HEK-293 cells and subsequently tagged with DNA for qPCR detection. Streptavidin-coated magnetic beads were treated with biotinylated small molecule ligands for 30 minutes at room temperature to generate affinity resins for kinase assays. The liganded beads were blocked with excess biotin and washed with blocking buffer (SeaBlock (Pierce), 1% BSA, 0.05% Tween 20, 1 mM DTT) to remove unbound ligand and to reduce non-specific binding. Binding reactions were assembled by combining kinases, liganded affinity beads, and test compounds in 1× binding buffer (20% SeaBlock, 0.17×PBS, 0.05% Tween 20, 6 mM DTT). Test compounds were prepared as 111× stocks in 100% DMSO. Kds were determined using an 11-point 3-fold compound dilution series with three DMSO control points. All compounds for Kd measurements are distributed by acoustic transfer (non-contact dispensing) in 100% DMSO. The compounds were then diluted directly into the assays such that the final concentration of DMSO was 0.9%. All reactions were performed in polypropylene 384-well plates. Each was a final volume of 0.02 mL. The assay plates were incubated at room temperature with shaking for 1 hour and the affinity beads were washed with wash buffer (1×PBS, 0.05% Tween 20). The beads were then re-suspended in elution buffer (1×PBS, 0.05% Tween 20, 0.5 μM nonbiotinylated affinity ligand) and incubated at room temperature with shaking for 30 minutes. The kinase concentration in the eluates was measured by qPCR.
Binding constants (Kds) were calculated with a standard dose-response curve using the Hill equation. The Hill Slope was set to −1. Curves were fitted using a non-linear least square fit with the Levenberg-Marquardt algorithm.

Q: Which Kd does the source give for `CC1(c2cn3c(-c4cccc(N[C@H]5CNC[C@@H]5F)n4)cnc3cn2)CC1` [Compound 1, N-((3S,4S)-4-fluoropyrrolidin-3-yl)-6-(6-(1-methylcyclopropyl)imidazo[1,2-a]pyrazin-3-yl)pyridin-2-amine] here?
A: 110 pM

Q: With `CC1(c2cn3c(-c4cccc(N[C@@H]5CCNC5)n4)cnc3cn2)CC1` [Compound 3, (R)-6-(6-(1-methylcyclopropyl)imidazo[1,2-a]pyrazin-3-yl)-N-(pyrrolidin-3-yl)pyridin-2-amine] as the molecule, how does the Kd read?
A: 71 pM

Q: How did the Kd turn out when `CC1(c2cn3c(-c4cccc(N[C@H]5CNCC56CC6)n4)cnc3cn2)CC1` [Compound 5, (R)-N-(6-(6-(1-methylcyclopropyl)imidazo[1,2-a]pyrazin-3-yl)pyridin-2-yl)-5-azaspiro[2.4]heptan-7-amine] was run?
A: 23 pM

Q: Which Kd does the source give for `FC(F)(F)C1(c2cn3c(-c4cccc(N[C@@H]5CCNC5)n4)cnc3cn2)CC1` [Compound 10, (R)-N-(pyrrolidin-3-yl)-6-(6-(1-(trifluoromethyl)cyclopropyl)imidazo[1,2-a]pyrazin-3-yl)pyridin-2-amine] here?
A: 300 pM

Q: How did the Kd turn out when `FC(F)c1cn2c(-c3cccc(N[C@H]4CNC[C@@H]4F)n3)cnc2cn1` [Compound 16, 6-(6-(difluoromethyl)imidazo[1,2-a]pyrazin-3-yl)-N-((3S,4S)-4-fluoropyrrolidin-3-yl)pyridin-2-amine] was run?
A: 320 pM

Q: How did the Kd turn out when `FC(F)c1cn2c(-c3cccc(N[C@H]4CNCC[C@@H]4F)n3)cnc2cn1` [Compound 25, 6-(6-(difluoromethyl)imidazo[1,2-a]pyrazin-3-yl)-N-((3S,4S)-4-fluoropiperidin-3-yl)pyridin-2-amine] was run?
A: 74 pM

Q: With `CC(C)(O)c1cn2c(-c3cccc(N[C@@H]4CCCNC4)n3)cnc2cn1` [Compound 30, (R)-2-(3-(6-(piperidin-3-ylamino)pyridin-2-yl)imidazo[1,2-a]pyrazin-6-yl)propan-2-ol] as the molecule, how does the Kd read?
A: 1800 pM

Q: How did the Kd turn out when `CC(C)(O)c1cn2c(-c3cccc(N[C@H]4CNCC[C@@H]4F)n3)cnc2cn1` [Compound 31, 2-(3-(6-(((3S,4S)-4-fluoropiperidin-3-yl)amino)pyridin-2-yl)imidazo[1,2-a]pyrazin-6-yl)propan-2-ol] was run?
A: 490 pM

Q: Which Kd does the source give for `FC(F)(F)COc1cn2c(-c3cccc(N[C@@H]4CCNC4)n3)cnc2cn1` [Compound 38, (R)-N-(pyrrolidin-3-yl)-6-(6-(2,2,2-trifluoroethoxy)imidazo[1,2-a]pyrazin-3-yl)pyridin-2-amine] here?
A: 750 pM

Q: Which Kd does the source give for `F[C@H]1CNC[C@@H]1Nc1cccc(-c2cnc3cnc(C4CC4)cn23)n1` [Compound 50, 6-(6-cyclopropylimidazo[1,2-a]pyrazin-3-yl)-N-((3S,4S)-4-fluoropyrrolidin-3-yl)pyridin-2-amine] here?
A: 100 pM

Q: `Cn1cc(-c2cn3c(-c4cccc(N[C@H]5CNC[C@@H]5F)n4)cnc3cn2)cn1` [Compound 52, N-((3S,4S)-4-fluoropyrrolidin-3-yl)-6-(6-(1-methyl-1H-pyrazol-4-yl)imidazo[1,2-a]pyrazin-3-yl)pyridin-2-amine] was tested. Which Kd did it give?
A: 62 pM
